Values quoted from earlier work as cited in patent publication US11224572B1, “Stable oral liquid composition of terazosin” (Novitium Pharma LLC, priority 2020, dated 2022).
Where a name gives a salt, the structure may show the parent alone.

Legend:
alpha-1 adrenoceptor [1] = system: alpha-1 adrenoceptor
[2] = patients treated with terazosin
alpha-1 adrenoceptor [3] = conditions: in animals

In the case of `COc1cc2nc(N3CCN(C(=O)C4CCCO4)CC3)nc(N)c2cc1OC` (racemic) [terazosin, (RS)-Piperazine, 1-(4-amino-6,7-dimethoxy-2-quinazolinyl)-4-[(tetrahydro-2-furanyl)carbonyl]-, monohydrochloride], the “time within which blood pressure decreases following oral administration” value (alpha-1 adrenoceptor [1]) is listed as no more than 15 min, the “patients experiencing an increase in urinary flow and improvement in symptoms of BPH” value [2] is listed as “approximately 70%” and the “effect on blood pressure” value (alpha-1 adrenoceptor [3]) is listed as “causes a decrease in blood pressure by decreasing total peripheral vascular resistance”.
